Results reported in PMC11641365, “Evaluation of In Vitro Biological Activity of Flavanone/Chromanone Derivatives: Molecular Analysis of Anticancer Mechanisms in Colorectal Cancer” (International Journal of Molecular Sciences, 2024).

How the values were obtained:
Assay type in all cases: cell-based, human
SW620 [1] = assay: Mitochondrial membrane potential (ΔΨm), JC-1 probe; conditions: compound at IC50, vs control
Text: Changes in mitochondrial potential in cancer cells exposed to the tested derivatives were monitored using the fluorescent probe JC-1. In non-apoptotic cells, JC-1 aggregates emit red-orange fluorescence. During changes in mitochondrial membrane potential, such as those associated with the initiation of PCD stages (both hyperpolarization and depolarization of mitochondrial membranes), JC-1 is converted to monomers, emitting green fluorescence.
5,5,6,6-Tetrachloro-1,1,3,3-tetraethylbenzimidazolylcarbocyanine iodide (JC-1) is one of the most reliable fluorescent probes used to assess changes in mitochondrial membrane potential (ΔΨ). In living cells with intact mitochondrial membranes, the lipophilic, cationic dye JC-1 penetrates the negatively charged mitochondrial matrix as a monomer, where it forms fluorescent aggregates with red-orange fluorescence (λex = 514 nm, λem = 590). […] The fluorescence ratio of aggregates (λem = 590 nm) and monomers (λem = 529 nm)—590 nm/529 nm—reflects the level of damage to the mitochondrial membrane.
Cells were seeded in black 96-well fluorometric microplates at a density of 10 × 10^3 cells/mL. […] Following treatment, the medium was removed, and the cell monolayers were washed twice with HBSS (140 mM NaCl, 5 mM KCl, 0.8 mM MgCl2, 1.8 mM CaCl2, 1 mM Na2HPO4, 10 mM HEPES, and 1% glucose). Then, 50 μL of a JC-1 solution in HBSS was added to each well, and the cells were incubated for 30 min in the dark at 37 °C (final JC-1 concentration 5 μM). After removing the fluorescent dye and replacing it with fresh HBSS, fluorescence measurements were taken using a Perkin-Elmer LS-5B spectrofluorometer (Perkin-Elmer LS-5B spectrofluorometer, Waltham, MA, USA). The excitation and emission wavelengths for JC-1 monomers were 514 nm and 529 nm, respectively, while for aggregates, they were 514 nm and 590 nm. The results were expressed as a percentage change in the fluorescence ratio of JC-1 aggregates to JC-1 monomers compared to the control, which was set at 100%.

LoVo [2] = assay: Intracellular GSH level, monochlorobimane (MCB) probe; conditions: compound at IC50, 24 h, vs control
Protocol: (§1) The spectrofluorimetric method with monochlorobimane (MCB; Sigma-Aldrich; St. Louis, MO, USA) was used to determine GSH. Monochlorobimane reacts with glutathione in a reaction catalyzed by cellular glutathione S-transferase. The reaction produces a fluorescent bimane-glutathione conjugate (GSH-MCB). A major advantage of MCB is its ability to penetrate the cell membrane, which is why it is used as a probe to determine the amount of GSH in living cells.
(§2) Cells were seeded in black 96-well fluorometric microplates at a density of 10 × 10^3 cells/mL. […] Following compound incubation, the medium was removed, and the cell monolayers were washed twice with HBSS (140 mM NaCl, 5 mM KCl, 0.8 mM MgCl2, 1.8 mM CaCl2, 1 mM Na2HPO4, 10 mM HEPES, and 1% glucose). A solution of MCB at a final concentration of 40 μM was added to each well and incubated in a CO2 cell culture incubator at 37 °C for 20 min. A 40 mM MCB stock solution was prepared by dissolving 9 mg of the reagent in 1 mL of absolute ethanol. Fluorescence was measured using a Perkin-Elmer LS-5B spectrofluorometer (Waltham, MA, USA) at the following excitation and fluorescence emission wavelengths: λex = 380 nm/λem = 470 nm. After incubation with MCB, the cells were lysed with 50 μL of lysis buffer (10 mM TRIS-HCl; pH 8 containing 0.1% Triton X-100). In order to normalize the number of cells in individual samples, the amount of DNA was determined by adding 50 μL of ethidium bromide (EB, final concentration 0.2 mM) to each well after measuring the MCB fluorescence and measuring the EB fluorescence at an excitation wavelength of λex = 530 nm and an emission wavelength of λem = 590 nm. The results obtained using the standard curve were converted to nM of GSH.

SW620 [3] = assay: as above; conditions: compound at IC50, 24 h, vs control
Protocol: as §1, §2

LoVo [4] = assay: Autophagy induction, monodansylcadaverine (MDC) fluorescence; conditions: compound at IC50, 24 h, vs control
Protocol: (§3) Autophagy induction in cells treated with the tested drugs was determined by measuring Monodansylcadaverine (MDC; Sigma-Aldrich; St. Louis, MO, USA) fluorescence according to a modified method described by Vázquez. […] In the cell, MDC accumulates in lipid-rich cell membranes. It has been shown that MDC can be used as a dye for detecting autophagy, as it accumulates in autophagolysosomes as a result of interaction with membrane lipids.
(§4) Cells were seeded in black 96-well fluorometric microplates at a density of 10 × 10^3 cells/mL. […] Following compound incubation, the medium was removed, and the cell monolayers were washed twice with HBSS (140 mM NaCl, 5 mM KCl, 0.8 mM MgCl2, 1.8 mM CaCl2, 1 mM Na2HPO4, 10 mM HEPES, and 1% glucose). A solution of MDC at a final concentration of 50 μM was added to each well and incubated in a CO2 cell culture incubator at 37 °C for 15 min. After incubation with MDC, the probe was removed, and the cells were lysed with 50 μL of lysis buffer (10 mM TRIS-HCl; pH 8 containing 0.1% Triton X-100). After lysis, fluorescence was measured at an excitation wavelength of λex = 390 nm and an emission wavelength of λem = 460 nm using a Perkin-Elmer LS-5B spectrofluorometer (Waltham, MA, USA). In order to normalize the number of cells in individual samples, the amount of DNA was determined by adding 50 μL of EB (final concentration 0.2 mM) to each well after measuring the MCB fluorescence and measuring the EB fluorescence at an excitation wavelength of λex = 530 nm and an emission wavelength of λem = 590 nm. The results were calculated as the ratio of MDC fluorescence to EB fluorescence.

SW620 [5] = assay: as above; conditions: compound at IC50, 24 h, vs control
Protocol: as §3, §4

SMILES	Increase in mitochondrial membrane potential (hyperpolarization) (SW620 [1])	Decrease in GSH levels (LoVo [2])	Decrease in GSH levels (SW620 [3]) [%]	Increase in MDC fluorescence intensity (autophagy) (LoVo [4])	Increase in MDC fluorescence intensity (autophagy) (SW620 [5])	Decrease in MDC fluorescence intensity (LoVo [4]) [%]	Change in MDC fluorescence intensity (SW620 [5])	Change in mitochondrial membrane potential ΔΨm (SW620 [1])	Change in MDC fluorescence intensity (LoVo [4])	Decrease in MDC fluorescence intensity (SW620 [5]) [%]
O=C1/C(=C/c2ccccc2)COc2ccccc21 [Compound 1]	approximately 40%	30–35%	40	approximately 20%	approximately 40%					
COc1cccc(/C=C2/C(=O)c3ccccc3OC2c2ccccc2)c1 (stereo not drawn) [Compound 3]	~60%	30–35%	30			20	no significant changes			
O=C1/C(=C/c2ccccc2)C(c2ccccc2)Oc2ccccc21 (stereo not drawn) [Compound 5]		30–35%	30					no statistically significant changes	No significant changes	20
